In US20240352029A1, “CDK Inhibitors And Their Use As Pharmaceuticals” (Prelude Therapeutics Incorporated, priority 2023, published 2024) one finds IC50 data, which are given here for 10 compounds.

The target in one experiment is CDK2/Cyclin E2 (Homo sapiens, UniProt P24941). As to the kind of experiment: CDK2/CyclinE2 enzymatic activity assay (TR-FRET). Format: biochemical. The settings on record: ATP 1 mM final, read-out: CDK2_E1 IC50. As to the method:
CDK2/CyclinE2 Enzymatic Activity Assay
(§1) The inhibitory activity of compounds was evaluated in vitro using TR-FRET assay with white 384-well low volume microplate (Greiner Bio-One). CDK2/Cyclin E2 catalyzed phosphorylation of peptide in the presence and absence of compounds was measured and used in IC50 determination. Recombinant protein complex CDK2/Cyclin E2, expressed from insect cell, was purchased from ProQinase. Testing compounds were dissolved in DMSO at 1 mM and tested in 9-dose IC50 mode. The reaction mixture was prepared by mixing CDK2/CyclinE2 (1 nM final), ULight-4E-BP1 (50 nM final, Perkinelmer, TRF0128-D), and ATP (1 mM final) in assay buffer (20 mM of HEPES pH 7.4, 1 mM of EGTA, 0.05% BSA, 0.005% Tween 20, and 1 mM TCEP). The compound of interest in DMSO was added to each well in 3-fold serial dilution by dispenser (TECAN D300E) to make a 9.9 μL of reaction mixture. After 20 minutes preincubation at room temperature, 0.1 μL MgCl2 (10 mM final) was added to initiate the reaction. Following a 45 minutes incubation at 37° C., the reaction was stopped by addition of 2 μL of quenching buffer consisting of Lance detection buffer (Perkinelmer CR97-100C), LANCE Ultra Europium-anti-P-4E-BP1 (Perkinelmer, TRF0216-D), EDTA, and incubate at room temperature for additional 60 minutes in dark. The reaction signal was measured by Envision multimode plate reader (PerkinElmer, 2102-0010). IC50 values were determined by fitting the data to the standard 4 parameters with Hill Slope using GraphPad Prism software.
In general terms: Time-resolved FRET reads energy transfer from a long-lived donor to a nearby acceptor.

Another experiment concerns the target T1, CDK4/Cyclin D1 (Homo sapiens, UniProt P11802).
T1 construct: purchased ProQinase; host or cells: insect cell
As to the kind of experiment: CDK4/CyclinD1 enzymatic activity assay (TR-FRET). Format: biochemical. The conditions noted are these: ATP 2 mM final, read-out: CDK4_D1 IC50. As to the method:
CDK4/CyclinD1 Enzymatic Activity Assay
as §1, with “Bio-One). CDK4/Cyclin D1” for “Bio-One). CDK2/Cyclin E2”, “complex CDK4/Cyclin D1,” for “complex CDK2/Cyclin E2,”, “mixing CDK4/CyclinD1” for “mixing CDK2/CyclinE2”, “ULight-4E-BP1 (100” for “ULight-4E-BP1 (50”, “ATP (2” for “ATP (1”

Another experiment has as its system OVCAR3 p-RB. As to the kind of experiment: pRB ICW assay in OVCAR3 cells. Format: cell-based. The conditions noted are these: Homo sapiens, OVCAR-3, 2 hours incubation with compound. The procedure:
pRB ICW Assay in OVCAR3 Cells
OVCAR3 cells were maintained in RPMI (Corning, Catalog #: 10-040-CV) supplemented with 10% v/v FBS (Gibco, Catalog #: 26140-079), 1% v/v Penicillin Streptomycin (Gibco, Catalog #15140-122.) OVCAR3 cells grown at log phase were trypsinized, counted, and resuspended in fresh medium to reach a final density of 6.7e4 cells/ml and 75 μL of culture were dispensed into a 384-well plate (Falcon, cat #353962) using Multidrop Combi dispenser (Thermo Scientific). The next day, compounds were dispensed as a 9-point, ½ log serial dilution using a Tecan digital dispenser (D300e), and cells were incubated with compound for 2 hours in a humidified incubator at 37° C. A reference compound at a final concentration of 10 μM was used as a control for maximum inhibition. Each compound was tested in duplicates in each experiment. At the end of the incubation, 25 μl of 16% paraformaldehyde (Electron Microscopy, cat #15710) was slowly added to each well and the plate was incubated at room temperature (RT) for 30 minutes to fix cells. Cells were then permeabilized by incubating with 50 μl/well of wash buffer (1×PBS with 0.1% Triton X-100) 5×5 minutes, followed by 1 hour blocking with 30 μl/well of Odyssey blocking buffer (Li—COR, cat #927-40000), all at RT. Anti-phosphor RB antibody (Cell signaling 8516S) was diluted 1:1000 in Odyssey blocking buffer and 20 μl was added to all wells and incubated overnight in 4° C. with gently rocking. The next day, cells were washed 5×5 min with 50 μl/well of wash buffer, followed with 1 hour incubation with secondary antibody and DRAQ5 diluted in Odyssey blocking buffer (1:500 dilution for secondary antibody and 1:2000 dilution for DRAQ5), 5×5 min washes, and one last wash with water. Plates were dried in 37° C. oven for 5 min and scanned using Li—COR Odyssey CLx imaging system to acquire intensities at 700 and 800 nm channels.

Broadly, the IC50 is the midpoint of a concentration-inhibition curve.

T1 sequence (P11802 whole entry): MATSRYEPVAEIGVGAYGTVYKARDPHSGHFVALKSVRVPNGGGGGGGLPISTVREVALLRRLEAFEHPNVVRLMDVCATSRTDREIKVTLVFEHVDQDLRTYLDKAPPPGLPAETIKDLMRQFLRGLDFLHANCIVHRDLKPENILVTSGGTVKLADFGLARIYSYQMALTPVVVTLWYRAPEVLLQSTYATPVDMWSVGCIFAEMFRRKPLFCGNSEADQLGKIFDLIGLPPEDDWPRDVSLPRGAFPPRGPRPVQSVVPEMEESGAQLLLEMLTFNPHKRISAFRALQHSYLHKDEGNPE
T1 sequence (P24385 whole entry partner): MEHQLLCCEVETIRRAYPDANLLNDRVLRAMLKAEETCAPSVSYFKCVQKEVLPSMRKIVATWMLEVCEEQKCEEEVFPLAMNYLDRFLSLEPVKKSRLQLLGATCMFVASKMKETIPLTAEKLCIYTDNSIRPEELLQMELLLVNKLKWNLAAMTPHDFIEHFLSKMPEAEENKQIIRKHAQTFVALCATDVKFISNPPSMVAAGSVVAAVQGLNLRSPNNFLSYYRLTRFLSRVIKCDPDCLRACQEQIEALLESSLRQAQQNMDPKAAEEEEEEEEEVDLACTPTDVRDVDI

`CC1(C)NC(=O)c2cc(-c3nc(NC4CCN(S(C)(=O)=O)CC4)ncc3C(F)(F)F)sc21` [Example 12, 6,6-dimethyl-2-(2-((1-(methylsulfonyl)piperidin-4-yl)amino)-5-(trifluoro-methyl)pyrimidin-4-yl)-5,6-dihydro-4H-thieno[2,3-c] pyrrol-4-one]: the IC50 on CDK2/Cyclin E2, on CDK4/Cyclin D1 and with OVCAR3 p-RB was at most 100 nM in each case.

On to `CC1(C)NC(=O)c2cc(-c3nc(N[C@@H]4CCN(S(C)(=O)=O)C[C@H]4F)ncc3C(F)(F)F)sc21` [Example 13, 2-(2-(((3R,4R)-3-fluoro-1-(methylsulfonyl)piperidin-4-yl)amino)-5-(trifluoro-methyl)pyrimidin-4-yl)-6,6-dimethyl-5,6-dihydro-4H-thieno[2,3-c]pyrrol-4-one], for which the IC50 on CDK2/Cyclin E2, on CDK4/Cyclin D1 and in the experiment on OVCAR3 p-RB was at most 100 nM throughout.

`CC1(C)NC(=O)c2cc(-c3nc(N[C@H]4CCN(S(C)(=O)=O)C[C@H]4F)ncc3C(F)(F)F)sc21` [Example 14, 2-(2-(((3R,4S)-3-fluoro-1-(methylsulfonyl)piperidin-4-yl)amino)-5-(trifluoro-methyl)pyrimidin-4-yl)-6,6-dimethyl-5,6-dihydro-4H-thieno[2,3-c]pyrrol-4-one]: the IC50 on CDK2/Cyclin E2, on CDK4/Cyclin D1 and in the experiment on OVCAR3 p-RB was at most 100 nM throughout.

Consider `Cn1cnc(S(=O)(=O)N2CC[C@H](Nc3ncc(C(F)(F)F)c(-c4cc5c(s4)C(C)(C)NC5=O)n3)[C@H](F)C2)c1` [Example 15, 2-(2-(((3R,4S)-3-fluoro-1-((1-methyl-1H-imidazol-4-yl)sulfonyl)piperidin-4-yl)amino)-5-(trifluoro-methyl)pyrimidin-4-yl)-6,6-dimethyl-5,6-dihydro-4H-thieno[2,3-c]pyrrol-4-one], for which the IC50 on CDK2/Cyclin E2, on CDK4/Cyclin D1 and in the experiment with OVCAR3 p-RB was at most 100 nM throughout.

Consider `Cn1cc(S(=O)(=O)N2CC[C@@H](Nc3ncc(C(F)(F)F)c(-c4cc5c(s4)C(C)(C)NC5=O)n3)[C@H](F)C2)cn1` [Example 16, 2-(2-(((3R,4R)-3-fluoro-1-((1-methyl-1H-pyrazol-4-yl)sulfonyl)piperidin-4-yl)amino)-5-(trifluoro-methyl)pyrimidin-4-yl)-6,6-dimethyl-5,6-dihydro-4H-thieno[2,3-c]pyrrol-4-one], for which the half-maximal inhibitory concentration (IC50) at CDK2/Cyclin E2, on CDK4/Cyclin D1 and in the experiment on OVCAR3 p-RB was at most 100 nM each time.

For `CS(=O)(=O)N1CCC(Nc2ncc(C(F)(F)F)c(-c3cc4c(s3)CNC4=O)n2)CC1` [Example 17, 2-(2-((1-(methylsulfonyl)piperidin-4-yl)amino)-5-(trifluoromethyl)pyrimidin-4-yl)-5,6-dihydro-4H-thieno[2,3-c]pyrrol-4-one], the IC50 on CDK2/Cyclin E2, on CDK4/Cyclin D1 and with OVCAR3 p-RB was at most 100 nM in each case.

As to `Cn1cc(S(=O)(=O)N2CCC(Nc3ncc(C(F)(F)F)c(-c4cc5c(s4)CNC5=O)n3)CC2)cn1` [Example 20, 2-(2-((1-((1-methyl-1H-pyrazol-4-yl)sulfonyl)piperidin-4-yl)amino)-5-(trifluoromethyl)pyrimidin-4-yl)-5,6-dihydro-4H-thieno[2,3-c]pyrrol-4-one], the IC50 on CDK2/Cyclin E2, on CDK4/Cyclin D1 and in the experiment with OVCAR3 p-RB was at most 100 nM in each case.

With `C[C@@H]1CN(S(=O)(=O)c2cnn(C)c2)CC[C@@H]1Nc1ncc(C(F)(F)F)c(-c2cc3c(s2)CNC3=O)n1` [Example 21, 2-(2-(((3R,4S)-3-methyl-1-((1-methyl-1H-pyrazol-4-yl)sulfonyl)piperidin-4-yl)amino)-5-(trifluoro-methyl)pyrimidin-4-yl)-5,6-dihydro-4H-thieno[2,3-c]pyrrol-4-one], the IC50 at CDK2/Cyclin E2, on CDK4/Cyclin D1 and with OVCAR3 p-RB was at most 100 nM each time.

With `Cn1cc(S(=O)(=O)N2CCC(Nc3ncc(C(F)(F)F)c(-c4cc5c(s4)C(=O)NC5)n3)CC2)cn1` [Example 23, 2-(2-((1-((1-Methyl-1H-pyrazol-4-yl)sulfonyl)piperidin-4-yl)amino)-5-(trifluoromethyl)pyrimidin-4-yl)-4,5-dihydro-6H-thieno[2,3-c]pyrrol-6-one], the figures for the IC50 on CDK2/Cyclin E2, on CDK4/Cyclin D1 and with OVCAR3 p-RB were at most 100 nM, 100 to 500 nM and 100 to 500 nM, respectively.

On to `CS(=O)(=O)N1CCC(Nc2ncc(C(F)(F)F)c(-c3cc4c(s3)C(=O)NC4)n2)CC1` [Example 24, 2-(2-((1-(Methylsulfonyl)piperidin-4-yl)amino)-5-(trifluoromethyl)pyrimidin-4-yl)-4,5-dihydro-6H-thieno[2,3-c]pyrrol-6-one], for which the IC50 is at most 100 nM at CDK2/Cyclin E2, over 500 nM on CDK4/Cyclin D1 and over 500 nM in the experiment with OVCAR3 p-RB.
